Laboratory results published in patent publication US10413545B2, “Imidazolin-5-one derivative useful as FASN inhibitors for the treatment of cancer” (Janssen Pharmaceutica NV, priority 2013, dated 2019).
Read-outs that look alike come from different tables or passages of the source.

Columns and labels:
[1] = tested on: A2780 ovarian cells; experiment: A2780 Ovarian Cell Proliferation Assay in Lipid Reduced Medium, with and without Palmitate (MTT); format: cell-based; settings: Homo sapiens, 10% lipid-reduced serum, 96 h
Method: The biological assays described below correspond to comparative assays for ovarian cell proliferation.
2500 cells were seeded in a 96-well clear well plate in 200 μL RPM11640 with 10% Fetal Calf Serum (Hyclone), and incubated at 37° C., 5% CO2, Blanks were wells without cells. The next day the culture medium was aspirated and replaced by 160 μL culture medium with 10% Lipid-Reduced Serum (LRS, Hyclone). […] After 96 h incubation, an MTT assay was performed.
2500 cells were seeded in a 96-well clear well plate in 200 μL RPM11640 with 10% Fetal Calf Serum (Hyclone), and incubated at 37° C., 5% CO2. Blanks were wells without cells. The next day the culture medium was aspirated and replaced by 160 μL culture medium with 10% Lipid-Reduced Serum (LRS, Hyclone). 20 μL test compound (at concentrations of 30 μM, 10 μM, 3 μM, 1 μM, 0.30 μM, 0.10 μM, 0.03 μM and 0.01 μM)/DMSO dilution followed by 20 μL ethanol-BSA solution were added to a final concentrations of 0.2% DMSO, 0.2% fatty-acid-free BSA, 0.25% ethanol. After 96 h incubation an MTT assay was performed.
Raw data generated by the instrument were normalized to % Controlmin values, which were calculated as: % Controlmin=100*(x−mLC)/(mHC−mLC)
where mLC and mHC were the means of the low control wells and high control wells on the plate, after manual exclusion of outliers. A plot of Controlmin versus test compound concentration was fitted to a 4-parameter logistic curve using a non-linear least squares regression method.

[2] = tested on: PC-3M-Luc-C6 prostate cells; experiment: In Vitro PC-3M-Luc-C6 Prostate Cell Proliferation Assay in Lipid Reduced Medium; format: cell-based; settings: Prostate cell, read-out: pIC50 PC-3M-Luc-C6 prostate cell (converted); 10% lipid reduced serum, 96 h, ATP-glow luminescence
Method: PC-3M-Luc-C6 prostate cells were obtained from Xenogen Corporation. Cells were maintained in MEM supplemented with 10% Fetal Calf Serum (FCS, Hyclone), 2 mM glutamine, 1 mM sodium pyruvate, 1% BME vitamins (available from for example, Sigma Aldrich), 0.1 mM non Essential Amino Acid and 50 μg/ml Gentamicin. The cells were passaged twice a week.
The next day 10 μl test compound/DMSO diluted in medium was added (3E-5M, 1E-5M, 3E-6M,1E-6M, 3E-7M, 1E-7M, 3E-8M, 1E-8M final concentration). Compounds were tested in duplicate. After 96 h incubation at 37° C., 5% CO2 25 μl ATP-glow mix was added. The plate was incubated for 30 min at 37° C. and luminescence was measured with the Envision.
Analysis: Determination of pIC50 Values
pIC50 values were calculated as follows. Raw data generated by the instruments were normalized to % Controlmin values, which were calculated as: % Controlmin=100*(x−mLC)/(mHC−mLC),
where mLC and mHC are the means of the low control wells and high control wells on the plate, after manual exclusion of outliers. The relation between the % Controlmin values and concentration was fitted to a 4-parameter logistic curve using a non-linear least squares regression method to determine the pIC50 value. Outlying data points were excluded manually to get a correct fit. The pIC50 corresponds to −log 10(IC50), if the IC50 is expressed in molar units (http://www.ncbi.nlm.nih.qovibooks/NBK91994). The IC50 parameter was always determined by non-linear regression, but one or more of the other parameters may have been held fixed on a relevant input value, such as 0 for the bottom values.

[3] = 25 μM palmitate added (control), read-out: pIC50 With Palmitate (converted)
[4] = no palmitate, read-out: pIC50 Without Palmitate (converted)

Structure (SMILES) | IC50 [1, 3] | IC50 [1, 4] | IC50 [2]
CC1(C)N=C(c2ccc(-c3ccc4[nH]ccc4c3)cc2)N(C[C@@H]2CCN(C(=O)C3CC3)C2)C1=O [Compound 1, (R)-2-(4-(1H-Indol-5-yl)phenyl)-1-((1-(cyclopropanecarbonyl)pyrrolidin-3-yl)methyl)-4,4-dimethyl-1H-imidazol-5(4H)-one] | > 10000 nM | 74.1 nM | 
Cn1ncc2cc(-c3ccc(C4=NC(C)(C)C(=O)N4C[C@@H]4CCN(C(=O)C5CC5)C4)cc3)ccc21 [Compound 2, (R)-1-((1-(cyclopropanecarbonyl)pyrrolidin-3-yl)methyl)-4,4-dimethyl-2-(4-(1-methyl-1H-indazol-5-yl)phenyl)-1H-imidazol-5(4H)-one] | > 10000 nM | 525 nM | 
CC1(C)N=C(c2ccc(-c3ccc4occc4c3)cc2)N(C[C@@H]2CCN(C(=O)C3CC3)C2)C1=O [Compound 3, (R)-2-(4-(benzofuran-5-yl)phenyl)-1-((1-(cyclopropanecarbonyl)pyrrolidin-3-yl)methyl)-4,4-dimethyl-1H-imidazol-5(4H)-one] | > 10000 nM | 1480 nM | 
CC1(C)N=C(c2ccc(-c3ccc4occc4c3)cc2)N(C[C@@H]2CCN(C(=O)C3(F)CC3)C2)C1=O [Compound 4, (R)-2-(4-(benzofuran-5-yl)phenyl)-1-((1-(1-fluorocyclopropanecarbonyl)pyrrolidin-3-yl)methyl)-4,4-dimethyl-1H-imidazol-5(4H)-one] | > 10000 nM | 2750 nM | 
CC1(C)N=C(c2ccc(-c3nc4ccccc4s3)cc2)N(C[C@@H]2CCN(C(=O)C3CC3)C2)C1=O [Compound 13, (R)-2-(4-(benzo[d]thiazol-2-yl)phenyl)-1-((1-(cyclopropanecarbonyl)pyrrolidin-3-yl)methyl)-4,4-dimethyl-1H-imidazol-5(4H)-one] | > 10000 nM | 3390 nM | 2090 nM
CC1(C)N=C(c2ccc(-c3ccc4ncccc4c3)cc2)N(C[C@@H]2CCN(C(=O)C3CC3)C2)C1=O [Compound 64, (R)-1-((1-(cyclopropanecarbonyl)pyrrolidin-3-yl)methyl)-4,4-dimethyl-2-(4-(quinolin-6-yl)phenyl)-1H-imidazol-5(4H)-one] | > 10000 nM | 4470 nM | 
Cn1cnc2cc(-c3ccc(C4=NC(C)(C)C(=O)N4C[C@@H]4CCN(C(=O)C5(C)CC5)C4)c(F)c3)ccc21 [Compound 90, (R)-2-(2-fluoro-4-(1-methyl-1H-benzo[d]imidazol-5-yl)phenyl)-4,4-dimethyl-1-((1-(1-methylcyclopropanecarbonyl)pyrrolidin-3-yl)methyl)-1H-imidazol-5(4H)-one] | > 10000 nM | ~2.95 nM | 
Cc1cc(-c2ccc3c(c2)ncn3C)ccc1C1=NC(C)(C)C(=O)N1CC1CN(C(=O)C2(O)CC2)C1 [Compound 91, 1-((1-(1-hydroxycyclopropanecarbonyl)azetidin-3-yl)methyl)-4,4-dimethyl-2-(2-methyl-4-(1-methyl-1H-benzo[d]imidazol-5-yl)phenyl)-1H-imidazol-5(4H)-one] | > 10000 nM | 129 nM | 
Cc1cc(-c2ccc3c(c2)ncn3C)ccc1C1=NC(C)(C)C(=O)N1C[C@@H]1CCN(C(=O)C2(O)CC2)C1 [Compound 92, (R)-1-((1-(1-hydroxycyclopropanecarbonyl)pyrrolidin-3-yl)methyl)-4,4-dimethyl-2-(2-methyl-4-(1-methyl-1H-benzo[d]imidazol-5-yl)phenyl)-1H-imidazol-5(4H)-one] | > 10000 nM | ~5.5 nM | 
CC1(C)N=C(c2ccc(-c3ccc4ncccc4c3)cc2)N(CC2CN(C(=O)C3CC3)C2)C1=O [Compound 98, 1-((1-(cyclopropanecarbonyl)azetidin-3-yl)methyl)-4,4-dimethyl-2-(4-(quinolin-6-yl)phenyl)-1H-imidazol-5(4H)-one] | > 10000 nM | > 10000 nM | 
CC1(C)N=C(c2ccc(-c3n[nH]c4ccccc34)cc2)N(CC2CN(C(=O)C3CC3)C2)C1=O [Compound 99, 2-(4-(1H-indazol-3-yl)phenyl)-1-((1-(cyclopropanecarbonyl)azetidin-3-yl)methyl)-4,4-dimethyl-1H-imidazol-5(4H)-one] | > 10000 nM | > 10000 nM | 

Now from value to compound:

IC50 [1, 3] | IC50 [1, 4] | IC50 [2] | Structure (SMILES)
3310 nM | 11 nM |  | CC1(C(=O)N2CC[C@@H](CN3C(=O)C(C)(C)N=C3c3ccc(-c4ccc5cc(F)ccc5c4)cc3F)C2)CC1 [Compound 75, (R)-2-(2-fluoro-4-(6-fluoronaphthalen-2-yl)phenyl)-4,4-dimethyl-1-((1-(1-methylcyclopropanecarbonyl)pyrrolidin-3-yl)methyl)-1H-imidazol-5(4H)-one]
> 10000 nM | 23.4 nM |  | Cn1ncc2cc(-c3ccc(C4=NC(C)(C)C(=O)N4C[C@@H]4CCN(C(=O)C5(O)CC5)C4)c(F)c3)ccc21 [Compound 76, (R)-2-(2-fluoro-4-(1-methyl-1H-indazol-5-yl)phenyl)-1((1-(1-hydroxycyclopropanecarbonyl)pyrrolidin-3-yl)methyl)-4,4-dimethyl-1H-imidazol-5(4H)-one]
> 10000 nM | 123 nM | 70.8 nM | CC1(C)N=C(c2ccc(-c3ccc4cc(F)ccc4c3)cc2F)N(CC2CN(C(=O)C3(O)CC3)C2)C1=O [Compound 79, 2-(2-fluoro-4-(6-fluoronaphthalen-2-yl)phenyl)-1-((1-(1-hydroxycyclopropanecarbonyl)azetidin-3-yl)methyl)-4,4-dimethyl-1H-imidazol-5(4H)-one]
> 10000 nM | ~14.8 nM |  | CC1(C)N=C(c2ccc(-c3ccc4cc(F)ccc4c3)cc2F)N(C[C@@H]2CCN(C(=O)C3(O)CC3)C2)C1=O [Compound 88, (R)-2-(2-fluoro-4-(6-fluoronaphthalen-2-yl)phenyl)-1-((1-(1-hydroxycyclopropanecarbonyl)pyrrolidin-3-yl)methyl)-4,4-dimethyl-1H-imidazol-5(4H)-one]
> 10000 nM | 6.76 nM |  | Cn1cnc2cc(-c3ccc(C4=NC(C)(C)C(=O)N4C[C@@H]4CCN(C(=O)C5(O)CC5)C4)c(F)c3)ccc21 [Compound 89, (R)-2-(2-fluoro-4-(1-methyl-1H-benzo[d]imidazol-5-yl)phenyl)-1-((1-(1-hydroxycyclopropanecarbonyl)pyrrolidin-3-yl)methyl)-4,4-dimethyl-1H-imidazol-5(4H)-one]
> 10000 nM | 30.9 nM |  | Cn1cnc2cc(-c3ccc(C4=NC(C)(C)C(=O)N4CC4CN(C(=O)C5(C)CC5)C4)c(F)c3)ccc21 [Compound 93, 2-(2-fluoro-4-(1-methyl-1H-benzo[d]imidazol-5-yl)phenyl)-4,4-dimethyl-1-((1-(1-methylcyclopropanecarbonyl)azetidin-3-yl)methyl)-1H-imidazol-5(4H)-one]
> 10000 nM | 100 nM |  | Cn1cnc2cc(-c3ccc(C4=NC(C)(C)C(=O)N4CC4CN(C(=O)C5(O)CC5)C4)c(F)c3)ccc21 [Compound 94, 2-(2-fluoro-4-(1-methyl-1H-benzo[d]imidazol-5-yl)phenyl)-1-((1-(1-hydroxycyclopropanecarbonyl)azetidin-3-yl)methyl)-4,4-dimethyl-1H-imidazol-5(4H)-one]
> 10000 nM | ~5.37 nM |  | Cn1cc(-c2ccc(-c3ccc(C4=NC(C)(C)C(=O)N4C[C@@H]4CCN(C(=O)C5(O)CC5)C4)c(F)c3)cc2)cn1 [Compound 95, (R)-2-(3-fluoro-4′-(1-methyl-1H-pyrazol-4-yl)-[1,1′-biphenyl]-4-yl)-1-((1-(1-hydroxycyclopropanecarbonyl)pyrrolidin-3-yl)methyl)-4,4-dimethyl-1H-imidazol-6(4H)-one]
> 10000 nM | ~22.4 nM |  | Cc1cc(-c2ccc3cc(C#N)ccc3c2)ccc1C1=NC(C)(C)C(=O)N1CC1CN(C(=O)C2CC2)C1 [Compound 96, 6-(4-(1-((1-(cyclopropanecarbonyl)azetidin-3-yl)methyl)-4,4-dimethyl-5-oxo-4,5-dihydro-1H-imidazol-2-yl)-3-methylphenyl)-2-naphthonitrile]
